These results are taken from patent US10202377B2, “3-(1H-benzo[D]imidazol-2-yl)-1H-pyrazolo[3,4-C]pyridine and therapeutic uses thereof” (Samumed, LLC, priority 2014, dated 2019).

SMILES strings stand for the structures.

For assay [1], the system named is primary human mesenchymal stem cells (hMSCs). As to the kind of experiment: Chondrogenesis induction in primary human mesenchymal stem cells (nodule imaging, Rhodamine B/Nile Red). Format: cell-based. The note with it: 6 days, dose at which the compound reached maximum chondrogenesis activity, dose range 10-2700 nM. The method, then: The above synthesized compounds were screened using primary human mesenchymal stem cells (hMSCs) to determine their ability to induce chondrogenesis (process by which cartilage is developed).
Human Mesenchymal Stem Cell Culture: Primary human mesenchymal stem cells (hMSCs) were purchased from Lonza (Walkersville, Md.) and expanded in Mesenchymal Stem Cell Growth Media (Lonza). Cells between passage 3 and 6 were used for the experiments.
Compound Screening: Each compound was dissolved in DMSO as a 10 mM stock and used to prepare compound source plates. Serial dilution (1:3, 6-point dose-response curves from 2700 nM to 10 nM) and compound transfer was performed using the ECHO 550 (Labcyte, Sunnyvale, Calif.) into 96-well clear bottom assay plates (Greiner Bio-One) with appropriate DMSO backfill for a final DMSO concentration of 0.03%. hMSCs were plated at 20,000 cells/well in 250 μL/well Incomplete Chondrogenic Induction Medium (Lonza; DMEM, dexamethasone, ascorbate, insulin-transferrin-selenium [ITS supplement], gentamycin-amphotericin [GA-1000], sodium pyruvate, proline and L-glutamine). TGF-β3 (10 ng/mL) was used as a positive control for differentiation while negative control wells were treated with 75 nL DMSO for normalization and calculating EC50 values. Cells were incubated at 37° C. and 5% CO2 for 6 days. To image chondrogenic nodules, the cells were fixed using 4% formaldehyde (Electron Microscopy Sciences), and stained with 2 μg/mL Rhodamine B (Sigma-Aldrich) and 20 μM Nile Red (Sigma-Aldrich) [Johnson K., et. al, A Stem Cell-Based Approach to Cartilage Repair, Science, (2012), 336(6082), 717-721]. The nodules imaged (4 images per well at 4× magnification) by excitation at 531 nm and emission at 625 nm and quantified using the CellInsight CX5 (Thermo Scientific). Number of nodules in each well was normalized to the average of 3 DMSO treated wells on the same plate using Excel (Microsoft Inc.). The normalized averages (fold change over DMSO) of 3 replicate wells for each compound concentration were calculated. Due to solubility limitations of some of the compounds, curve fitting was incomplete leading to inaccurate EC50 determinations.
Using TGF-β3 as a positive control, the concentration of test compounds required to induce equivalent levels of chondrogenesis is reported. In addition, the maximum activity of each compound and the respective dose that each compound reached maximum chondrogenesis activity is reported.

Assay [2] concerns primary human fibroblasts derived from IPF patients (LL29 cells). As to the kind of experiment: Inhibition of fibrosis (αSMA staining) in TGF-β1-treated primary human fibroblasts from IPF patients. Format: cell-based. Particulars: Fibroblast, 96 h, TGF-β1 20 ng/mL, 4 days. The method in brief:
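LL29 IPF fibroblasts in F12 with 1% FBS were stimulated with TGF-β1 (20 ng/mL) and incubated 4 days at 37 °C. SYTOX-positive dead cells were excluded, and αSMA-positive cells were counted by immunostaining as % of total. Values were normalized to TGF-β1/DMSO wells on the same plate, and EC50 derived.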

Assay [3] has as its system Wnt activity (Sp5-Luc reporter, SW480 colon carcinoma cells). As to the kind of experiment: Sp5-Luc Wnt reporter gene screening assay in SW480 colon carcinoma cells. Particulars: Homo sapiens. Background: A reporter such as luciferase makes a cellular process visible.

On to `CN(C)Cc1cncc(-c2cc3c(-c4nc5c(N6CCCCC6)cccc5[nH]4)n[nH]c3cn2)c1` [Compound 169, N,N-dimethyl-1-(5-(3-(4-(piperidin-1-yl)-1H-benzo[d]imidazol-2-yl)-1H-pyrazolo[3,4-c]pyridin-5-yl)pyridin-3-yl)methanamine], for which, in assay [1], the “Conc (nM) of Max. activity” value was found to be 900 nM. The molecule also registered an EC50 in assay [2] of 9 nM. In assay [3], this molecule came in with an IC50 of 28.3 nM.
Take `CC(=O)c1ccc(-c2cccc3[nH]c(-c4n[nH]c5cnc(-c6cncc(NC(=O)CC(C)C)c6)cc45)nc23)s1` [Compound 392, N-(5-(3-(4-(5-Acetylthiophen-2-yl)-1H-benzo[d]imidazol-2-yl)-1H-pyrazolo[3,4-c]pyridin-5-yl)pyridin-3-yl)-3-methylbutanamide]: the “Conc (nM) of Max. activity” value in assay [1] was determined as 2700 nM. The molecule further yielded an EC50 in assay [2] of 267 nM. The molecule also came in with an IC50 in assay [3] of 32.1 nM.
Take `Fc1cccc(-c2cccc3[nH]c(-c4n[nH]c5cnc(-c6cn[nH]c6)cc45)nc23)c1` [Compound 939, 3-(4-(3-Fluorophenyl)-1H-benzo[d]imidazol-2-yl)-5-(1H-pyrazol-4-yl)-1H-pyrazolo[3,4-c]pyridine]: in assay [1], the “Conc (nM) of Max. activity” value is 30 nM. Besides, the midpoint of the response in assay [2], the EC50, lay at 9 nM. This molecule also yielded an IC50 in assay [3] of 25 nM.
Take `CC(C)CC(=O)Nc1cncc(-c2cc3c(-c4nc5c(-c6ccoc6)cccc5[nH]4)n[nH]c3cn2)c1` [Compound 288, N-(5-(3-(4-(Furan-3-yl)-1H-benzo[d]imidazol-2-yl)-1H-pyrazolo[3,4-c]pyridin-5-yl)pyridin-3-yl)-3-methylbutanamide]: the “Conc (nM) of Max. activity” value in assay [1] is recorded as 10 nM. The molecule further displayed an EC50 in assay [2] of 9 nM. The molecule also registered an IC50 in assay [3] of 6.8 nM.

The term EC50 denotes the concentration at which the effect is half-maximal. Low values mean greater potency, high ones weaker potency. One may read the IC50 as the concentration needed to halve the response being measured. A lower IC50 goes with greater potency.
